Experimental data reported in PubChem BioAssay AID256 (DTP/NCI, 2004).
Where “and” joins values, the source holds several entries; their conditions need not be identical. Equal entries are not always repeated. Toxic doses and inconclusive results are not listed. Rule for the calls: active = survival T/C of 150% or more; inactive = T/C below 125% in these data.

Tested on: CD2F1 mice, L1210 leukemia ip, survival T/C
Experiment: NCI In Vivo Anticancer Drug Screen. Data for tumor model L1210 Leukemia (intraperitoneal) in CD2F1 (CDF1) mice
Settings: higher = longer survival
How it was run: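 Read-out first: treated-group measurement over vehicle-control measurement, expressed as a ratio. Animals bore a transplanted tumor line and were dosed with compound or vehicle.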

[1] = endpoint: mean survival time, dose: 50.0 mg/kg/injection, schedule: Q01DX009 (ip), vehicle: saline with Tween-80
[2] = endpoint: mean survival time, dose: 100.0 mg/kg/injection, schedule: Q01DX009 (ip), vehicle: saline with Tween-80
[3] = endpoint: mean survival time, dose: 200.0 mg/kg/injection, schedule: Q01DX009 (ip), vehicle: saline with Tween-80
[4] = endpoint: mean survival time, dose: 100.0 mg/kg/injection, schedule: Q04DX003 (ip), vehicle: saline with Tween-80
[5] = endpoint: mean survival time, dose: 200.0 mg/kg/injection, schedule: Q04DX003 (ip), vehicle: saline with Tween-80
[6] = endpoint: mean survival time, dose: 400.0 mg/kg/injection, schedule: Q04DX003 (ip), vehicle: saline with Tween-80
[7] = endpoint: mean survival time, dose: 100.0 mg/kg/injection, schedule: Q01DX001 (ip), vehicle: saline
[8] = endpoint: mean survival time, dose: 200.0 mg/kg/injection, schedule: Q01DX001 (ip), vehicle: saline
[9] = endpoint: mean survival time, dose: 400.0 mg/kg/injection, schedule: Q01DX001 (ip), vehicle: saline
[10] = endpoint: mean survival time, dose: 400.0 mg/kg/injection, schedule: Q01DX009 (ip), vehicle: saline with Tween-80

Measured: T/C

CN(C)CC#N
inactive: endpoint: mean survival time, dose: 5.0 mg/kg/injection, schedule: Q01DX009 (ip), vehicle: saline sonified 97 % of control | endpoint: mean survival time, dose: 5.0 mg/kg/injection, schedule: Q04DX003 (ip), vehicle: saline 103 % of control | endpoint: mean survival time, dose: 10.0 mg/kg/injection, schedule: Q01DX009 (ip), vehicle: saline sonified 97 % of control | endpoint: mean survival time, dose: 10.0 mg/kg/injection, schedule: Q04DX003 (ip), vehicle: saline 97 % of control | endpoint: mean survival time, dose: 20.0 mg/kg/injection, schedule: Q01DX009 (ip), vehicle: saline sonified 98 % of control | endpoint: mean survival time, dose: 20.0 mg/kg/injection, schedule: Q04DX003 (ip), vehicle: saline 95 % of control

CCCCCCCCCCSCC
inactive: endpoint: mean survival time, dose: 100.0 mg/kg/injection, schedule: Q01DX009 (ip), vehicle: saline 101 % of control | endpoint: mean survival time, dose: 100.0 mg/kg/injection, schedule: Q04DX003 (ip), vehicle: saline 103 % of control | endpoint: mean survival time, dose: 200.0 mg/kg/injection, schedule: Q01DX009 (ip), vehicle: saline 104 % of control | endpoint: mean survival time, dose: 200.0 mg/kg/injection, schedule: Q04DX003 (ip), vehicle: saline 103 % of control | endpoint: mean survival time, dose: 400.0 mg/kg/injection, schedule: Q01DX009 (ip), vehicle: saline 101 % of control | endpoint: mean survival time, dose: 400.0 mg/kg/injection, schedule: Q04DX003 (ip), vehicle: saline 103 % of control

C=C(Cl)CN(CCCC(=O)O)c1ccccc1
inactive: endpoint: mean survival time, dose: 25.0 mg/kg/injection, schedule: Q01DX009 (ip), vehicle: other 95 % of control | endpoint: mean survival time, dose: 50.0 mg/kg/injection, schedule: Q01DX009 (ip), vehicle: other 89 % of control | endpoint: mean survival time, dose: 100.0 mg/kg/injection, schedule: Q01DX009 (ip), vehicle: other 97 % of control

COC(=O)C(CS)NC(=O)CCNC(=O)OCc1ccccc1 (configuration not stated)
inactive: endpoint: mean survival time, dose: 12.5 mg/kg/injection, schedule: Q01DX009 (ip), vehicle: sodium bicarbonate 100 % of control | endpoint: mean survival time, dose: 25.0 mg/kg/injection, schedule: Q01DX009 (ip), vehicle: sodium bicarbonate 96 % of control | endpoint: mean survival time, dose: 50.0 mg/kg/injection, schedule: Q01DX009 (ip), vehicle: sodium bicarbonate 91 % of control | endpoint: mean survival time, dose: 100.0 mg/kg/injection, schedule: Q01DX009 (ip), vehicle: sodium bicarbonate 93 % of control | endpoint: mean survival time, dose: 200.0 mg/kg/injection, schedule: Q01DX009 (ip), vehicle: sodium bicarbonate 88 % of control

O=c1oc(-c2ccc([N+](=O)[O-])cc2)nc2cc(Cl)ccc12
inactive: [1] 97 % of control | [2] 108 % of control | [3] 103 % of control

Cc1csc2[nH]c(=O)[nH]c(=O)c12
inactive: [4] 96 % of control | [5] 94 % of control | [6] 87 % of control

CC1(C)CCCC2(C)C(OCCO)=CC(=O)C=C12 (configuration not stated)
inactive: endpoint: mean survival time, dose: 100.0 mg/kg/injection, schedule: Q04DX003 (ip), vehicle: saline sonified 96 % of control | endpoint: mean survival time, dose: 200.0 mg/kg/injection, schedule: Q04DX003 (ip), vehicle: saline sonified 98 % of control | endpoint: mean survival time, dose: 400.0 mg/kg/injection, schedule: Q04DX003 (ip), vehicle: saline sonified 96 % of control

COc1ccc(NC2=NCCS2)cc1
inactive: [4] 94 % of control | [5] 101 % of control

O=C(O)c1cc2ccccc2s1
inactive: [7] 98 % of control | [8] 96 % of control | [9] 92 % of control

CC1OC(n2ccc(=O)[nH]c2=O)C2OC(C)(C)OC2C1=O (configuration not stated)
inactive: endpoint: median survival time, dose: 12.5 mg/kg/injection, schedule: Q01DX005 (ip), vehicle: saline with Tween-80 109 % of control | endpoint: median survival time, dose: 25.0 mg/kg/injection, schedule: Q01DX005 (ip), vehicle: saline with Tween-80 97 % of control | endpoint: median survival time, dose: 50.0 mg/kg/injection, schedule: Q01DX005 (ip), vehicle: saline with Tween-80 97 % of control | endpoint: median survival time, dose: 100.0 mg/kg/injection, schedule: Q01DX005 (ip), vehicle: saline with Tween-80 101 % of control | endpoint: median survival time, dose: 200.0 mg/kg/injection, schedule: Q01DX005 (ip), vehicle: saline with Tween-80 101 % of control

O=P1(O)Cc2ccccc2-c2ccccc21
inactive: [2] 100 % of control | [3] 110 % of control | [10] 98 % of control

CC(C)(C)N[P+](Cc1ccc(C[P+](NC(C)(C)C)(NC(C)(C)C)c2ccccc2)cc1)(NC(C)(C)C)c1ccccc1
inactive: endpoint: mean survival time, dose: 1.56 mg/kg/injection, schedule: Q04DX003 (ip), vehicle: saline 109 % of control | endpoint: mean survival time, dose: 3.13 mg/kg/injection, schedule: Q04DX003 (ip), vehicle: saline 95 % of control

Nc1ccc(CNc2ccccc2)cc1
inactive: endpoint: mean survival time, dose: 100.0 mg/kg/injection, schedule: Q04DX002 (ip), vehicle: other 95 % of control and 103 % of control | endpoint: mean survival time, dose: 200.0 mg/kg/injection, schedule: Q04DX002 (ip), vehicle: other 100 % of control and 106 % of control | endpoint: mean survival time, dose: 400.0 mg/kg/injection, schedule: Q04DX002 (ip), vehicle: other 118 % of control and 91 % of control

O=C(O)CCC(Cc1ccccc1)C(=O)O (configuration not stated)
inactive: [2] 97 % of control | [3] 94 % of control | [10] 86 % of control

COc1ccc(Cl)cc1C(c1cc(Cl)ccc1OC)C(Cl)(Cl)Cl
inactive: [2] 97 % of control | [4] 103 % of control | [3] 109 % of control | [5] 103 % of control | [10] 104 % of control | [6] 101 % of control

Cc1cc(C)cc(C(C)(C)C)c1
inactive: [2] 96 % of control | [3] 102 % of control

CC(=O)N(C)N=Nc1ccc(C(F)(F)F)cc1
inactive: endpoint: mean survival time, dose: 50.0 mg/kg/injection, schedule: Q04DX003 (ip), vehicle: Klucel (hydroxypropylcellulose) (HPC) 97 % of control | endpoint: mean survival time, dose: 100.0 mg/kg/injection, schedule: Q04DX003 (ip), vehicle: Klucel (hydroxypropylcellulose) (HPC) 102 % of control | endpoint: mean survival time, dose: 200.0 mg/kg/injection, schedule: Q04DX003 (ip), vehicle: Klucel (hydroxypropylcellulose) (HPC) 96 % of control | endpoint: mean survival time, dose: 400.0 mg/kg/injection, schedule: Q04DX003 (ip), vehicle: Klucel (hydroxypropylcellulose) (HPC) 105 % of control

Cc1ccc(C(=O)Nc2ncn(C3CC(O)C(CO)O3)c(=O)n2)cc1 (configuration not stated)
inactive: endpoint: mean survival time, dose: 1.56 mg/kg/injection, schedule: Q01DX005 (ip), vehicle: saline with Tween-80 116 % of control | endpoint: mean survival time, dose: 50.0 mg/kg/injection, schedule: Q01DX005 (ip), vehicle: saline with Tween-80 92 % of control
active: endpoint: mean survival time, dose: 3.13 mg/kg/injection, schedule: Q01DX005 (ip), vehicle: saline with Tween-80 154 % of control | endpoint: mean survival time, dose: 6.25 mg/kg/injection, schedule: Q01DX005 (ip), vehicle: saline with Tween-80 276 % of control | endpoint: mean survival time, dose: 12.5 mg/kg/injection, schedule: Q01DX005 (ip), vehicle: saline with Tween-80 244 % of control

O=C1CCCCCC2=NC12 (configuration not stated)
inactive: endpoint: median survival time, dose: 6.25 mg/kg/injection, schedule: Q01DX009 (ip), vehicle: Klucel (hydroxypropylcellulose) (HPC) 97 % of control | endpoint: median survival time, dose: 12.5 mg/kg/injection, schedule: Q01DX009 (ip), vehicle: Klucel (hydroxypropylcellulose) (HPC) 102 % of control | endpoint: median survival time, dose: 25.0 mg/kg/injection, schedule: Q01DX009 (ip), vehicle: Klucel (hydroxypropylcellulose) (HPC) 105 % of control | endpoint: median survival time, dose: 50.0 mg/kg/injection, schedule: Q01DX009 (ip), vehicle: Klucel (hydroxypropylcellulose) (HPC) 111 % of control

CCOC(=O)CC1NCCS1 (configuration not stated)
inactive: [7] 97 % of control | [8] 96 % of control | [9] 94 % of control

Nc1ccc2scnc2c1
inactive: [4] 108 % of control | [5] 96 % of control | [6] 101 % of control

CN=C(N)N/N=C(\C)c1ccc2c(c1)Cc1ccccc1-2
inactive: endpoint: mean survival time, dose: 12.5 mg/kg/injection, schedule: Q01DX009 (ip), vehicle: saline with Tween-80 102 % of control | endpoint: mean survival time, dose: 25.0 mg/kg/injection, schedule: Q01DX009 (ip), vehicle: saline with Tween-80 105 % of control | [1] 108 % of control | [2] 97 % of control | [3] 91 % of control | endpoint: median survival time, dose: 12.5 mg/kg/injection, schedule: Q01DX009 (ip), vehicle: saline with Tween-80 101 % of control | endpoint: median survival time, dose: 25.0 mg/kg/injection, schedule: Q01DX009 (ip), vehicle: saline with Tween-80 106 % of control | endpoint: median survival time, dose: 50.0 mg/kg/injection, schedule: Q01DX009 (ip), vehicle: saline with Tween-80 103 % of control | endpoint: median survival time, dose: 100.0 mg/kg/injection, schedule: Q01DX009 (ip), vehicle: saline with Tween-80 101 % of control | endpoint: median survival time, dose: 200.0 mg/kg/injection, schedule: Q01DX009 (ip), vehicle: saline with Tween-80 106 % of control

O=P(N1CC1)(N1CC1)N1CC1
inactive: endpoint: mean survival time, dose: 2.0 mg/kg/injection, schedule: Q03DX003 (ip), vehicle: saline 110 % of control | endpoint: mean survival time, dose: 16.0 mg/kg/injection, schedule: Q01DX009 (ip), vehicle: saline 96 % of control

CN(C)c1ccc(/C=C/c2ccncc2)cc1
inactive: [2] 95 % of control | [3] 96 % of control | [10] 89 % of control
